ChEMBL document CHEMBL1201862, “PubChem BioAssay data set” (2004)
Activity calls are given as the source filed them.

Assays:
[1] = biological target: DNA dC->dU-editing enzyme APOBEC-3A (Homo sapiens, UniProt P31941); assay: APOBEC3A DNA deaminase inhibitors, dose response, biochemical (AID 504722); format: functional
[2] = biological target: DNA dC->dU-editing enzyme APOBEC-3G (Homo sapiens, UniProt Q9HC16); assay: Dose Response confirmation of small molecule APOBEC3G DNA Deaminase Inhibitors via a fluorescence-based single-stranded DNA deaminase assay. [Related pubchem assays (depositor defined):AID493012, AID493028]; format: functional
[3] = Luminescence Cell-Based Dose Response HTS to Identify Activators of Luciferase Translation or Activity in H4 […] Cells. [Related pubchem assays: 1829 (Project Summary), 1814 (Primary HTS)]; format: functional
Caspase-3 = biological target: T1, Caspase-3 (Homo sapiens, UniProt P42574); format: functional;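 note: Dose-response selectivity test against caspase-3 for candidate inhibitors of sentrin-specific proteases (SENPs)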
T1 sequence (P42574 whole entry): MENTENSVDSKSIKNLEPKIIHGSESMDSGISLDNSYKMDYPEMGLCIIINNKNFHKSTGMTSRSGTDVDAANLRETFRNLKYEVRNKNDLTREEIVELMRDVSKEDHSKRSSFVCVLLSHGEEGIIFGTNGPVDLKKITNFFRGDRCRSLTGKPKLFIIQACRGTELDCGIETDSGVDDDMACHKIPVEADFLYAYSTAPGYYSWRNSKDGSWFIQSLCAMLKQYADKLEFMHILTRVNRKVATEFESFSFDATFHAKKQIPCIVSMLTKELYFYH

[4] = biological target: T2, Sentrin-specific protease 7 (Homo sapiens, UniProt Q9BQF6); format: functional;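 note: Luminescence-based dose-response confirmation of ultra-high-throughput screening hits, measuring inhibition of SENP7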
T2 sequence (Q9BQF6 whole entry): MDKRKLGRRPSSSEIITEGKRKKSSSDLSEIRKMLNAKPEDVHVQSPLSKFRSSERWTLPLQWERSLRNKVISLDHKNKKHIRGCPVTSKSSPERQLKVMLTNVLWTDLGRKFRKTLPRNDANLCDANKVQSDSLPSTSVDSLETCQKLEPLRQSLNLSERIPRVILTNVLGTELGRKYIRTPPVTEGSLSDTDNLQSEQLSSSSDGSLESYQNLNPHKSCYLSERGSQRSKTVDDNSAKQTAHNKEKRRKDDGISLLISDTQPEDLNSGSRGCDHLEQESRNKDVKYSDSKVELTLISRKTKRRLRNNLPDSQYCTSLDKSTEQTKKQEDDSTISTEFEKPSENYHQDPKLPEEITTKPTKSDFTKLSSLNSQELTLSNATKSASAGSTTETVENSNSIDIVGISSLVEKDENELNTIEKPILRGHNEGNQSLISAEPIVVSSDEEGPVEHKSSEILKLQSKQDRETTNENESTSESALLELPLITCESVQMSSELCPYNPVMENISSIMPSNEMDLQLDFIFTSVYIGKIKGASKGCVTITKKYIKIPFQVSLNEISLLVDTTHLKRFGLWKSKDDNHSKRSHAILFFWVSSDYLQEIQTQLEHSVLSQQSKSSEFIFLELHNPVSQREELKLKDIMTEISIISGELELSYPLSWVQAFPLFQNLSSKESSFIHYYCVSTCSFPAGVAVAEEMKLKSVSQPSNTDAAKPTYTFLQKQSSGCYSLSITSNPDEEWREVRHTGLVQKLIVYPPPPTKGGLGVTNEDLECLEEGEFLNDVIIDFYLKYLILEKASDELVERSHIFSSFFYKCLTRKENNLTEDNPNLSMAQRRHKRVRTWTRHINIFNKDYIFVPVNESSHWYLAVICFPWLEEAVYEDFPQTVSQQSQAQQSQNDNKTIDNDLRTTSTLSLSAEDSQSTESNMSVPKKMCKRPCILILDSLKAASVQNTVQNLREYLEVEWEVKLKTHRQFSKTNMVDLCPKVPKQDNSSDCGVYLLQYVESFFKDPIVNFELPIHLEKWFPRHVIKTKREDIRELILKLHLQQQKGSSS

[5] = biological target: T3, Sentrin-specific protease 8 (Homo sapiens, UniProt Q96LD8); format: functional;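 note: luminescence read-out of SENP8 inhibition, dose-response confirmation following an ultra-high-throughput screen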
T3 sequence (Q96LD8 whole entry): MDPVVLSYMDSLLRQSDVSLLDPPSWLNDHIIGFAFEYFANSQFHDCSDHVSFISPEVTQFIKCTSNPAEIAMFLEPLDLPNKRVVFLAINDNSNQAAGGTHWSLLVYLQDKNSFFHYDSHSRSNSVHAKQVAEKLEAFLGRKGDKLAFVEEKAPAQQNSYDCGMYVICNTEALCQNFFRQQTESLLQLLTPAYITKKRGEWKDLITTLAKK

H4 = assay: Luminescence Cell-Based Dose Response HTS to Identify Activators of 5'UTR Stem-Loop Driven Prion Protein mRNA Translation in H4 Neuroglioblastoma Cells. [Related pubchem assays: 1829 (Project Summary), 1814 (Primary HTS)]; format: functional; conditions: Homo sapiens
[6] = biological target: T4, Sentrin-specific protease 6 (Homo sapiens, UniProt Q9GZR1); format: functional;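 note: Luminescence-based dose-response confirmatory assay of SENP6 inhibition, following up an ultra-high-throughput screen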
T4 sequence (Q9GZR1 whole entry): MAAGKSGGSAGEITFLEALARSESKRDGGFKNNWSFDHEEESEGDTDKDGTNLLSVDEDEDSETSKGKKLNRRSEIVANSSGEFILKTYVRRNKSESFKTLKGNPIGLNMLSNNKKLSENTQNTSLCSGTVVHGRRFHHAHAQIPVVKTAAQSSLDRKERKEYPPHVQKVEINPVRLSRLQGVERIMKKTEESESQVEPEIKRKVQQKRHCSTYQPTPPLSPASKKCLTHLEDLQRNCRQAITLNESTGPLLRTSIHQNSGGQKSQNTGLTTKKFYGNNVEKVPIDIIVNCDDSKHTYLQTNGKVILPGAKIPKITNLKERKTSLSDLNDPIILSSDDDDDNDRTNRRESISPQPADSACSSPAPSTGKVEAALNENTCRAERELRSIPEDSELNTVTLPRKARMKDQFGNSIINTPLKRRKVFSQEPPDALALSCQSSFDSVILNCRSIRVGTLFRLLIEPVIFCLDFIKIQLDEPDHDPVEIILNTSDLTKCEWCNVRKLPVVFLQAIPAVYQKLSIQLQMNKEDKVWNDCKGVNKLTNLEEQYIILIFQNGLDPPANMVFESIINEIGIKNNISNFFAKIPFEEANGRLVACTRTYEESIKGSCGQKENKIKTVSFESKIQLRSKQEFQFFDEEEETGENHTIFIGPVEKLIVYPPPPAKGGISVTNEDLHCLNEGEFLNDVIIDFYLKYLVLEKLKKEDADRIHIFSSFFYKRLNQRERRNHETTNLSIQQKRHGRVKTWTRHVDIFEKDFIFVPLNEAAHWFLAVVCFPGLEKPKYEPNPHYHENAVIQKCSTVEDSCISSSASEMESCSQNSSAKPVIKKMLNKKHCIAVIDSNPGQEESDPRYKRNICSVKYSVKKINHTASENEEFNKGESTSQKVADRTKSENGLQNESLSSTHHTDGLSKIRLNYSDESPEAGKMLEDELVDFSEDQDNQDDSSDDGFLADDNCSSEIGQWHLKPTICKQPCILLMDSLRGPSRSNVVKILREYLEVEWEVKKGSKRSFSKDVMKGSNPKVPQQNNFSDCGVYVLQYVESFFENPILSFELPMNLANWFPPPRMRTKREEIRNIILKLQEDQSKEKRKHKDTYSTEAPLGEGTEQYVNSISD

[7] = biological target: NACHT, LRR and PYD domains-containing protein 3 (Homo sapiens, UniProt Q96P20); assay: NALP3 inhibitors in yeast, dose response, luminescent (AID 488799); format: functional
Sequence of NACHT, LRR and PYD domains-containing protein 3 (Q96P20 whole entry, the tested form may be a part): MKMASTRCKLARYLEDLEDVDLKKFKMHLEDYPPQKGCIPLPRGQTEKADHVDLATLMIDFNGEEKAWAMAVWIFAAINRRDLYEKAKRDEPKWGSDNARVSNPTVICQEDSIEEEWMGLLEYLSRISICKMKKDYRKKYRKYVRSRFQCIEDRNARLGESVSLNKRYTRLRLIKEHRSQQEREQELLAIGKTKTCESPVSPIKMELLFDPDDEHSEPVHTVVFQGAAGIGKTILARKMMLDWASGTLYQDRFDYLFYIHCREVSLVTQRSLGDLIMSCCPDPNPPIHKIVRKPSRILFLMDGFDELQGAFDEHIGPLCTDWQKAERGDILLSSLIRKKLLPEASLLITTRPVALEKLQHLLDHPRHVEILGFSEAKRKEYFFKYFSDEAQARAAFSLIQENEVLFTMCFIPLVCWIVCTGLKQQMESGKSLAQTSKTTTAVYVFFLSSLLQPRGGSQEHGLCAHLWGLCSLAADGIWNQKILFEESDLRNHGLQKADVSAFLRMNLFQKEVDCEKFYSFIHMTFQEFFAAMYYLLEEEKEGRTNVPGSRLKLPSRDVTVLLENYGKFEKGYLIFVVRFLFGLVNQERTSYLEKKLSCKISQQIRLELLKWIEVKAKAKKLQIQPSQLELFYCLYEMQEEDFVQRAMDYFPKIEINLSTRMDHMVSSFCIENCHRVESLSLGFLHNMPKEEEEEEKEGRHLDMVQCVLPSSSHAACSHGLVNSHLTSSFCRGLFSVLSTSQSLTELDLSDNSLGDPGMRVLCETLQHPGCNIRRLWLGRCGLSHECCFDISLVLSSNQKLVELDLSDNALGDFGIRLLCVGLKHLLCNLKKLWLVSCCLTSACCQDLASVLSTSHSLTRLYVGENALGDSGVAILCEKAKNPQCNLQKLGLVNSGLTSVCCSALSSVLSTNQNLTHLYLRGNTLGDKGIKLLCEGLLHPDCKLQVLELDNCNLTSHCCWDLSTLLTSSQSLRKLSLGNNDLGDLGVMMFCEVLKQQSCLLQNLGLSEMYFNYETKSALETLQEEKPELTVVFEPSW

[8] = biological target: T5, Voltage-gated N-type calcium channel alpha-1B subunit/Amyloid beta A4 precursor protein-binding family A member 1 (Homo sapiens, UniProt Q00975+Q02410); format: protein assay
T5 sequence (Q00975 whole entry, the tested form may be a part): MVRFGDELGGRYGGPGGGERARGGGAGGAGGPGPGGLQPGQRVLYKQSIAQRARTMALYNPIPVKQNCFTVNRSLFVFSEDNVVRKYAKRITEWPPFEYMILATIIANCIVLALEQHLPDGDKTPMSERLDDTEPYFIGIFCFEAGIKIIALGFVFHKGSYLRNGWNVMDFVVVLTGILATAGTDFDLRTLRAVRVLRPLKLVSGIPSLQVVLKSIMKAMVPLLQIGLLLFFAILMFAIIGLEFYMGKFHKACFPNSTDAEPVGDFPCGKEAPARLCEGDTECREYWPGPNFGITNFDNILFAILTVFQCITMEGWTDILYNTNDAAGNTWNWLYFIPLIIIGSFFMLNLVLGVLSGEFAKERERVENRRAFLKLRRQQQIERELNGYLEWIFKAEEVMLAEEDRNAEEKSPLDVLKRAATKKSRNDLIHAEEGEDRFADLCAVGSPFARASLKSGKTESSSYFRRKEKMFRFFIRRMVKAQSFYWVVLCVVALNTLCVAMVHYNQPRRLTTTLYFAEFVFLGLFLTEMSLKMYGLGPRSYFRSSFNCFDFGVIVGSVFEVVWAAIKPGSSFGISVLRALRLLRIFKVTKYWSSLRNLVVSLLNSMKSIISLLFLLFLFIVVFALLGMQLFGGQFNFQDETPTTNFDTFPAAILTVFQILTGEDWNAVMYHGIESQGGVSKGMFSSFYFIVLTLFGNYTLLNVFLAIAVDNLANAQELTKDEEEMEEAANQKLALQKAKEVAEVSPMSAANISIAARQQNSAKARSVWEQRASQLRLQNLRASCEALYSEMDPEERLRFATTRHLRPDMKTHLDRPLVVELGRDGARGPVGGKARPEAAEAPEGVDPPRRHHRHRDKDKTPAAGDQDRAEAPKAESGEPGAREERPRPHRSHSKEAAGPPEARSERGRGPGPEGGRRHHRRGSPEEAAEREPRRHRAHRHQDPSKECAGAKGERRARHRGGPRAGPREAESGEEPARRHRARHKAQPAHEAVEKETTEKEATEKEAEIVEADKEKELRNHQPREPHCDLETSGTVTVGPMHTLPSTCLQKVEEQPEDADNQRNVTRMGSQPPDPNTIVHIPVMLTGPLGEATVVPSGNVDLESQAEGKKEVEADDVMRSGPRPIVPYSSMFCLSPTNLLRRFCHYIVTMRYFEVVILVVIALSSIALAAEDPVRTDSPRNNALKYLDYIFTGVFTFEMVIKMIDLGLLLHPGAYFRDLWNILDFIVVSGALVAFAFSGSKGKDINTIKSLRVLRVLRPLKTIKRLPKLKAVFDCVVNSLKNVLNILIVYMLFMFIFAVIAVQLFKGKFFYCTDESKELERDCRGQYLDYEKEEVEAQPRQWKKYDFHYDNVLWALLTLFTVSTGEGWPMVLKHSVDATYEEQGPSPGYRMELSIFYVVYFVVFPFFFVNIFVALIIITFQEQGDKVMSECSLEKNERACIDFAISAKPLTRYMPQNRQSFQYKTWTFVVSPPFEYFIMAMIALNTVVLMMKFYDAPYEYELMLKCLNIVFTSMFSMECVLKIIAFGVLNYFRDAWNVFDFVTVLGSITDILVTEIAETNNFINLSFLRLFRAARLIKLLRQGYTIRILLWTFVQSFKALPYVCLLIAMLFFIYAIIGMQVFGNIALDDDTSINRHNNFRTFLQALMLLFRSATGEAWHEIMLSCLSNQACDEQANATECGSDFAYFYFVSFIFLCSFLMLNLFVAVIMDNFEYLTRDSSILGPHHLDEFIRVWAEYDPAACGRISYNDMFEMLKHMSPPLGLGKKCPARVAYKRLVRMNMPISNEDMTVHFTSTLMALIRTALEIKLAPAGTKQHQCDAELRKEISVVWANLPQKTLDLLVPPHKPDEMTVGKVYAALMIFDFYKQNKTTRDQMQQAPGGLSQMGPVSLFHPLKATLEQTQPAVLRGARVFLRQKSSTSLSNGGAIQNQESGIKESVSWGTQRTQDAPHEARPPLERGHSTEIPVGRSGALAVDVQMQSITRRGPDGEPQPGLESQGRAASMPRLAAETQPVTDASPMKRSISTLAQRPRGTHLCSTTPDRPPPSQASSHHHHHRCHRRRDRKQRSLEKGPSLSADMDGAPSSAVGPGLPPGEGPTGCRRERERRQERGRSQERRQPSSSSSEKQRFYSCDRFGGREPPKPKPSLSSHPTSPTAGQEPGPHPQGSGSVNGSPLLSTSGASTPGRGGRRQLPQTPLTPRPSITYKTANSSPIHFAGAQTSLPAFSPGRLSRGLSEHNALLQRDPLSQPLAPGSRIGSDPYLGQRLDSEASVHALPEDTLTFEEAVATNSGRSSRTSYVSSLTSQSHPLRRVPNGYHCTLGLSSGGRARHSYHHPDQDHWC
T5 sequence (Q02410 whole entry, the tested form may be a part): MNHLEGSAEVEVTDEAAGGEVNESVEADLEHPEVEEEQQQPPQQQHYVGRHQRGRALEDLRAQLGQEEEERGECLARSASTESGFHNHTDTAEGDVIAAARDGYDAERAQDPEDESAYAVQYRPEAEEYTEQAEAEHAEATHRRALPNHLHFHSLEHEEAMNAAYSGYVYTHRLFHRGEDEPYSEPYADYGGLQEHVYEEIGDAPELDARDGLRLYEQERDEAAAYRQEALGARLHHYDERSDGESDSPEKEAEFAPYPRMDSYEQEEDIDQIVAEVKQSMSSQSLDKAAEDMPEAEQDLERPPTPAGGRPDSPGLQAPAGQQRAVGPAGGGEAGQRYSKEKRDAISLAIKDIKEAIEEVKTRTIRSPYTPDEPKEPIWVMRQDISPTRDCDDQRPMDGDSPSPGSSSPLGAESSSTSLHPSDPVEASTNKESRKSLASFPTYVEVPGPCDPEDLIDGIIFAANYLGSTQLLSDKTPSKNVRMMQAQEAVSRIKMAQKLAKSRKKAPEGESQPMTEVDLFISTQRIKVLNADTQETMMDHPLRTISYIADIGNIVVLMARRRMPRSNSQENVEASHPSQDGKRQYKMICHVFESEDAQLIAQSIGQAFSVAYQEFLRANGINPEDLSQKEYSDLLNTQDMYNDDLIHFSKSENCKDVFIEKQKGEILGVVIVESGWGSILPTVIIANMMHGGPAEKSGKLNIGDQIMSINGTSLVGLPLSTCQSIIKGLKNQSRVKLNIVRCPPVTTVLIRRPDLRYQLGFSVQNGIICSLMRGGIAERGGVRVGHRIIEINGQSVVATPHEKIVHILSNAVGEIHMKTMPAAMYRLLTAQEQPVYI

[9] = biological target: T6, Carboxy-terminal domain RNA polymerase II polypeptide A small phosphatase 1 (Homo sapiens, UniProt Q9GZU7); assay: inhibitors of CTDSP1, concentration-response testing, biochemical assay, absorbance-based, actives from ultra-high-throughput screening (AID 540297); format: functional
T6 sequence (Q9GZU7 whole entry): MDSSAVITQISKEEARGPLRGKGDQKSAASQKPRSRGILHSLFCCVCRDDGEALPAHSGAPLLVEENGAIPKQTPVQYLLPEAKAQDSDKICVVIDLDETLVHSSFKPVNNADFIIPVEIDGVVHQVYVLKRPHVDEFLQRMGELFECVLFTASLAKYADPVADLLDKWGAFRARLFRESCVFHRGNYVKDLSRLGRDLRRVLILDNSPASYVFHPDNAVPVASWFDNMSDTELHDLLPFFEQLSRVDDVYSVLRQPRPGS

[10] = biological target: Induced myeloid leukemia cell differentiation protein Mcl-1 (Homo sapiens, UniProt Q07820); format: functional
Sequence of Induced myeloid leukemia cell differentiation protein Mcl-1 (Q07820 whole entry): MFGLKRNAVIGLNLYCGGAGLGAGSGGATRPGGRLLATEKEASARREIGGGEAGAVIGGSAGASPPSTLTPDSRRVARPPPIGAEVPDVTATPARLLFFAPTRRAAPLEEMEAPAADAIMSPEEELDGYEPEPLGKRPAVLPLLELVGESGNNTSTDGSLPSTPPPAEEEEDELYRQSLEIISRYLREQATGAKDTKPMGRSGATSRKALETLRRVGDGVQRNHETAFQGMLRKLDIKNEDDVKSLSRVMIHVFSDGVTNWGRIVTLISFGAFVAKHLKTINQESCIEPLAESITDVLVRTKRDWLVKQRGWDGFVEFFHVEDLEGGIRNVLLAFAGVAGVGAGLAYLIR

Large T antigen = Large T antigen (Simian virus 40, UniProt P03070); format: functional, Betapolyomavirus macacae;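 note: Confirmatory-stage PubChem screen for compounds that inhibit SV40 T antigen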
Genome polyprotein = Genome polyprotein (dengue virus type 2, UniProt P29990); assay: Dengue-2 NS5 methyltransferase inhibitors, primary screen, biochemical, confirmation dose response (AID 588689); format: functional
[11] = biological target: T5, Voltage-gated N-type calcium channel alpha-1B subunit/Amyloid beta A4 precursor protein-binding family A member 1; format: protein assay; remark: listed apart in the source
[12] = biological target: T7, Zinc finger protein mex-5 (Caenorhabditis elegans, UniProt Q9XUB2); assay: MEX-5/TCR-2 RNA interaction inhibitors, dose response, biochemical, C. elegans, fluorescence polarization (AID 1960)
T7 sequence (Q9XUB2 whole entry): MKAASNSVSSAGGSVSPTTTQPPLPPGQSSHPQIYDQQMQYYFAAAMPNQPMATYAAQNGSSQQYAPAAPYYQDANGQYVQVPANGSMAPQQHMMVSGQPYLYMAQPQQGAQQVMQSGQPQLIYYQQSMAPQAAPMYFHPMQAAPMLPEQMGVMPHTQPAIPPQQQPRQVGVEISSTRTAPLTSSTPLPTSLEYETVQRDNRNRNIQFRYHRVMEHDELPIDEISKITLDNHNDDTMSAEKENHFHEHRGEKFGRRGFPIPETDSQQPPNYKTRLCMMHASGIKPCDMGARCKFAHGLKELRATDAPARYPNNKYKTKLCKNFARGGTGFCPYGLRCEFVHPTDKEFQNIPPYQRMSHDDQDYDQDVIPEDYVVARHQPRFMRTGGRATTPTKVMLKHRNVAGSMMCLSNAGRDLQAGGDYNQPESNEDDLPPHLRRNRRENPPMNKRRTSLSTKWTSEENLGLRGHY

[13] = biological target: T8, RNA-binding protein pos-1 (Caenorhabditis elegans, UniProt G5EF15); assay: inhibitors of POS-1/mex-3 RNA binding, dose response, biochemical, fluorescence polarization (AID 1964);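 note: purified POS-1 fused to maltose binding protein made in E. coli; potency of compounds blocking POS-1 binding to fluorescent RNA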
T8 sequence (G5EF15 whole entry): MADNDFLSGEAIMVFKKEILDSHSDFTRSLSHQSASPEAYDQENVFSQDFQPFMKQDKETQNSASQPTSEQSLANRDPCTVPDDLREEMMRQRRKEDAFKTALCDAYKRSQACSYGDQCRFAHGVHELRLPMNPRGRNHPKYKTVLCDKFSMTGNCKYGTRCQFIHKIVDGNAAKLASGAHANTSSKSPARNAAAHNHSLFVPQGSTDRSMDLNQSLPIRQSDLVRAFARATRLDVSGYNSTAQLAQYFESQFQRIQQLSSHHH

Protein Rev = Protein Rev (Human immunodeficiency virus type 1 group M subtype B (isolate HXB2)(HIV-1), UniProt P04618); assay: inhibitors of Rev binding to RRE RNA, dose response, biochemical, fluorescence polarization, HIV-1 (AID 434976); parameters: species or system Human immunodeficiency virus 1
[14] = biological target: Female germline-specific tumor suppressor gld-1 (Caenorhabditis elegans, UniProt Q17339); assay: inhibitors of GLD-1 binding to TGE RNA, dose response, biochemical, fluorescence polarization, C. elegans (AID 2802);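 note: fluorescence polarization of labeled TGE RNA bound by purified gld-1 protein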
Sequence of Female germline-specific tumor suppressor gld-1 (Q17339 whole entry, the tested form may be a part): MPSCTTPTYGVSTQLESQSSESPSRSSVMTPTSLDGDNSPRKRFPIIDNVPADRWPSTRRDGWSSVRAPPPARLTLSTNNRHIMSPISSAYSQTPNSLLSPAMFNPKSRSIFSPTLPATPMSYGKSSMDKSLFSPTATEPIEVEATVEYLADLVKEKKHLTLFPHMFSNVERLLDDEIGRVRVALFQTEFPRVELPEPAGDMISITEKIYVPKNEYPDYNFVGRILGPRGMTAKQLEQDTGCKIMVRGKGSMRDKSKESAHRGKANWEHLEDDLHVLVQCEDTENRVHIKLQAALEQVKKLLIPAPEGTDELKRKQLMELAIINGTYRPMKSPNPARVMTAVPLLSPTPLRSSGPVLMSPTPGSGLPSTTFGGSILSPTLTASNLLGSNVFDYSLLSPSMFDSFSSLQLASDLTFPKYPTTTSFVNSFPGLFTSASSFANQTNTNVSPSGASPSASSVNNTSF

[15] = ZM109 Env clade C HIV-1 fusion inhibitors, dose response, HeLa effector, CEM target cells, luciferase, cherry-pick (AID 652058); format: functional, cell-based
[16] = off-target signal loss in HeLa-CEM21 co-culture – HeLa F-luc CTL cells, cherry-picked, counter-screen for HIV-1 Env fusion inhibitor project, dose response (AID 652040); format: functional, cell-based;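 note: potency for signal decrease marking cytotoxic or nonspecific inhibition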
[17] = inhibitors of clade B AD8 Env fusion, dose response, cell-based, cherry-pick (AID 652062); format: functional;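 note: luciferase signal from cell-cell fusion driven by HIV-1 clade B AD8 Env; potency is for inhibitors of fusion seen as a drop in luminescence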
[18] = cytotoxicity in HEK-293T cells, dose response, cytotoxicity control for TCR NF-kB inhibitor project, luminescence, T-cell screen hits (AID 489026); format: functional, cell-based;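 note: cells exposed to compound about 14 hours before the viability readout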
Nonstructural protein 1 = Nonstructural protein 1 (Influenza A virus, UniProt Q194T2); format: functional, Influenza A virus (A/California/07/2009(H1N1))
[19] = CEM21 lymphoblast cell cytotoxicity, dose response, cytotoxicity control for viral fusion inhibitor project, CellTiter-Glo luminescence, cherry-picked (AID 652042); format: functional, cell-based;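 note: potency for signal decrease meaning cytotoxicity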
[20] = inhibitors of HIV Env-driven cell fusion, dose response, cherry-pick (AID 652057); format: functional, cell-based

Cc1ccccc1/C=N/n1c(S)nnc1-c1ccccn1
IC50 [1]: > 100 µM (inactive)
IC50 [2]: 4.13 µM (active)

CCCC1CCC(c2ccc(OCC)cc2)=CC1=O (stereo not drawn)
EC50 [3]: 0.126 µM (active)
IC50 (Caspase-3): 21.3 µM (active)
IC50 [4]: 10.1 µM (active)
IC50 [5]: 40.2 µM (active)
EC50 (H4): 20.7 µM (inconclusive)
IC50 [6]: 29.6 µM (active)
IC50 [7]: 53.9 µM (active)

O=C(O)CCn1cc(C=C2C(=O)NC(=S)NC2=O)c(-c2cccc(Cl)c2)n1
IC50 [8]: 13 µM (active)
IC50 [9]: 10.1 µM (active)
IC50 [10]: 2.87 µM (active)
IC50 (Large T antigen): 76.3 µM (active)
IC50 (Genome polyprotein): 10.9 µM (active)
IC50 [11]: 30.7 µM (active)

Nc1c(O)ccc2c1C(=O)c1ccccc1C2=O
EC50 [12]: 10.4 µM (active)
EC50 [13]: > 300 µM (not active)
IC50 (Protein Rev): > 75.4 µM (not active)
IC50 [10]: 3.66 µM (not active)
IC50 [14]: 4.15 µM (active)

CCN(CC)c1ccc2nc3ccc(N)cc3[n+](-c3ccccc3)c2c1
AC50 [15]: 1.28 µM (active)
AC50 [16]: 1.41 µM (active)
AC50 [17]: 3.84 µM (active)
IC50 [18]: 67.7 µM (inactive)
IC50 (Nonstructural protein 1): 8.47 µM (active)
AC50 [19]: 3.25 µM (active)
AC50 [20]: 3.78 µM (active)
IC50 [7]: 4.79 µM (active)
